Data taken from US20060177430A1, “Treatment of ocular disorders with ophthalmic formulations containing methylsulfonylmethane as a transport enhancer” (Chakshu Research Inc, priority 2002, published 2006).
Converted amounts (≈) assume the structure as drawn. “And” between values parts separate entries of the source, which are not always exact repeats. Identical values can stand only once. Like-named read-outs stand apart in the source and are kept apart here.

Columns and labels:
[1] = @ 79° F.; cited from earlier work
[2] = test system: Human lens epithelial cells (HLEC); test: Cell viability following oxidation-induced toxicity in human lens epithelial cells (Example 27); assay type: cell-based; details: oxidants, 16 hrs; 4 mM MSM, 0.5 mM EDTA
Method: Materials. […] All cell culture medium components were from Invitrogen. Cell Culture and Treatment. […] Cell Viability. Cell survival was determined by Trypan Blue staining and counting with a hemocytometer. Dead cells stain blue, while live cells exclude Trypan Blue. Cell viability is represented as the number of live cells divided by the total number of cells, expressed as a percentage. [[[…]]] Experimental Procedure. 1. Seeded 0.5×10^5/ml of HLEC (Passage 5) into three 12-well plates, incubated at 37° C. for overnight. 2. […] Added the oxidation reagents and MSM and/or EDTA to the proper wells. […] Ferrous ammonium sulfate (FAS) 10 μM, ADP 100 μM, H2O2 100 μM • Fenton': FAS 10 μM, ADP 100 μM, H2O2 100 μM • Ferric Chloride: […]

rat lens organ culture = test: Oxidation-induced toxicity in rat lens organ culture (Example 26); assay type: cell-based; details: 7 days
Source text: Materials. […] All cell culture medium components were from Invitrogen. Animals. […] Lens Culture. The rat lenses were dissected and washed with 1% penicillin/streptomycin in sterile PBS. […] The lenses were visualized under a Nikon Eclipse 200 and photographs were taken using a Multidimensional Imaging System. [table] Experimental Procedure. 1. Sacrificed seven rats, removed the eyeballs as soon as possible, and put them into a tube containing PBS with 0.1% gentamicin. 2. Dissected the lenses immediately and washed with PBS. 3. […] Each treatment was performed in 2 wells. Final concentrations for the six treatments were as follows: […] After 7 days of lens culture, took photographs and determined level of light transparency through the lenses.

[3] = Dexamethasone solubility experiment with increasing MSM concentration (Example 16); assay type: physicochemical
[4] = Intestinal membrane permeation, MSM as enhancer, dexamethasone as active (Example 15); assay type: in vitro ADME
Source text: (§1) The same study design and experimental setup was used as described in the above experiments.

[5] = not told
Source text: as §1

in vivo = test: in vivo
Method: The ocular pharmacokinetic behavior of EDTA, when administered as a component of Formulation 1, was evaluated in rabbits over a period of five days. Two healthy male rabbits, each approximately 2.5 to 3 kg in body weight, were used for the study.
On day 1 of the study, one drop of Formulation 1 was topically instilled in each eye of both rabbits (four eyes total). No additional eye drops were administered during the course of the study. Samples of aqueous humor were extracted at 15 min, 30 min, 1 hr, 4 hrs, 3 days, and 5 days following administration (as indicated in the following table). Vitreous humor was extracted at 5 days following administration from all four eyes. The concentration of EDTA was measured in all the samples of aqueous humor and vitreous humor by HPLC analysis.
In the following in vivo experiment, the ocular pharmacokinetic behavior of EDTA, when administered with MSM as permeation enhancing penetrating agent, was evaluated in rabbits over a period of five days. Two healthy male rabbits, each approximately 2.5 to 3 Kg in body weight, were used for the study.
An eye drop formulation of the invention, was prepared as follows: High purity de-ionized (DI) water (500 ml) was filtered via a 0.2 micron filter. MSM (27 g), EDTA (13 g), and L-carnosine (5 g) were added to the filtered DI water, and mixed until visual transparency was achieved, indicating dissolution. The mixture was poured into 10 ml bottles each having a dropper cap. On a weight percent basis, the eye drops had the following composition: […]

[6] = EDTA pharmacokinetic study: 14C-EDTA in structures of the rat eye (Example 25)
Method: Objectives. Determine the amount of C-14 labeled EDTA that penetrates into the various structures of the rat eye (cornea, aqueous humor, lens, vitreous, and retina), using eye drops that contain MSM. Carry out a comparison of two different eye drop formulations that differed in their EDTA concentration.
8 μl of Eye Drop 1 was applied to the rats' eyes. […] The eyeballs were quickly washed 6 times in 5 ml of saline each time. Aqueous humor was aspirated from both eyes and dispensed in 50 μl of PBS. Cornea, lens, vitreous and retina from each eye were separated and placed in Eppendorf tubes containing H2O and 10N NaOH in the following ratio:
8 μl of Eye Drop 2 was applied to the rat eye. After 0.5, 2 and 4 hours, the rats were sacrificed and the experiment conducted in the same way as for Eye Drop 1.

[7] = 54 mg MSM/ml
Source text: as §1

[8] = 5 days after one drop of Formulation 1, per rabbit eye

CS(C)(=O)=O [MSM, methylsulfonylmethane]
water solubility [1]: 34 % w/v | percent cell viability (Trypan Blue) [2]: increased the percent cell viability for all oxidants | Light transmission through the lens, of control (rat lens organ culture; 1 mM ascorbate + 100 μM hydrogen peroxide, oxidant alone 32%, 4 mM MSM, 0.5 mM EDTA): 57% | Light transmission through the lens, of untreated control (rat lens organ culture; 50 mM glucose, glucose alone 45%, 4 mM MSM, 0.5 mM EDTA): 68% | lens opacification in photographs of the lens culture (rat lens organ culture; glucose or ascorbate plus hydrogen peroxide): mitigated lens opacification by both oxidants

C[C@@H]1C[C@H]2[C@@H]3CCC4=CC(=O)C=C[C@]4(C)[C@@]3(F)[C@@H](O)C[C@]2(C)[C@@]1(O)C(=O)CO [dexamethasone]
solubility ([3]; MSM concentration 250 mg/mL): 45 mg/100 mL | solubility change ([3]; MSM concentration of 30 mg/mL): not significantly increased | solubility ([3]; MSM solution, aqueous with cosolvent or surfactant or cyclodextrin, MSM 30 mg/ml, read-out: Solubility of Dexamethasone): 160 µg/mL (≈ 408 µM) | solubility ([3]; MSM solution, aqueous with cosolvent or surfactant or cyclodextrin, MSM 50 mg/ml, read-out: Solubility of Dexamethasone): 175 µg/mL (≈ 446 µM) | solubility ([3]; MSM solution, aqueous with cosolvent or surfactant or cyclodextrin, MSM 100 mg/ml, read-out: Solubility of Dexamethasone): 190 µg/mL (≈ 484 µM) | solubility ([3]; MSM solution, aqueous with cosolvent or surfactant or cyclodextrin, MSM 150 mg/ml, read-out: Solubility of Dexamethasone): 270 µg/mL (≈ 688 µM) | solubility ([3]; MSM solution, aqueous with cosolvent or surfactant or cyclodextrin, MSM 200 mg/ml, read-out: Solubility of Dexamethasone): 340 µg/mL (≈ 866 µM) | solubility ([3]; MSM solution, aqueous with cosolvent or surfactant or cyclodextrin, MSM 250 mg/ml, read-out: Solubility of Dexamethasone): 450 µg/mL (≈ 1150 µM) | water solubility ([3]; room temperature, no MSM): 10 mg/100 mL | increase on the diffusion rate ([4]; 27 mg MSM/ml): 25% | permeation increase over control ([4]; 200 mg MSM/mL): approximately 50%

NCCC(=O)N[C@@H](Cc1cnc[nH]1)C(=O)O [L-carnosine]
increase of permeation over control [5]: about 2.5%

O=C([O-])CN(CC(=O)[O-])[14CH2][14CH2]N(CC(=O)[O-])CC(=O)[O-].[Na+].[Na+].[Na+].[Na+] [^14C-EDTA, Ethylenediamine tetraacetic acid-1,2-^14C tetrasodium]
increase in amount in the aqueous humor in the presence of MSM (30-minute time point, 8 μl eye drop on rat cornea, MSM versus PBS): approximately 5 fold

O=C(O)CN(CCN(CC(=O)O)CC(=O)O)CC(=O)O [EDTA, ethylenediamine tetraacetic acid]
Concentration of EDTA, aqueous humor (in vivo; 3 days after one drop of Formulation 1, per rabbit eye): 0.4 micrograms per milliliter and 0.7 micrograms per milliliter | Concentration of EDTA, aqueous humor (in vivo; [8]): 0.5 micrograms per milliliter and 0.4 micrograms per milliliter | Concentration of EDTA, vitreous humor (in vivo; [8]): 0.5 micrograms per milliliter and 0.7 micrograms per milliliter | concentration at 15 min (in vivo; male, rabbit, aqueous humor, topical, 1 drop of Formulation 1 per eye, Concentration of EDTA, aqueous humor, 15 min after one drop of Formulation 1, per rabbit eye, HPLC): 1300 ng/mL | concentration at 30 min (in vivo; male, rabbit, aqueous humor, topical, 1 drop of Formulation 1 per eye, Concentration of EDTA, aqueous humor, 30 min after one drop of Formulation 1, per rabbit eye): 10700 ng/mL | concentration at 1 hr (in vivo; male, rabbit, aqueous humor, topical, 1 drop of Formulation 1 per eye, Concentration of EDTA, aqueous humor, 1 hr after one drop of Formulation 1, per rabbit eye): 5300 ng/mL | concentration at 4 hrs (in vivo; male, rabbit, aqueous humor, topical, 1 drop of Formulation 1 per eye, Concentration of EDTA, aqueous humor, 4 hrs after one drop of Formulation 1, per rabbit eye): 900 ng/mL | concentration at 3 days (in vivo; male, rabbit, aqueous humor, topical, 1 drop of Formulation 1 per eye, Concentration of EDTA, aqueous humor, 3 days after one drop of Formulation 1, per rabbit eye): 500 ng/mL | concentration at 5 days (in vivo; male, rabbit, aqueous humor, topical, 1 drop of Formulation 1 per eye, Concentration of EDTA, aqueous humor, 5 days after one drop of Formulation 1, per rabbit eye): 600 ng/mL | concentration at 30 min (in vivo; male, rabbit, aqueous humor, topical, 1 drop of Formulation 1 per eye, concentration of EDTA in aqueous humor, 30 minutes following administration of Formulation 1): 10700 ng/mL | concentration at 5 days (in vivo; male, rabbit, vitreous humor, topical, 1 drop of Formulation 1 per eye, Concentration of EDTA, vitreous humor, 5 days after one drop of Formulation 1, per rabbit eye): 600 ng/mL | amount present in the aqueous humor (in the absence of MSM): very little | dose dependency of nanograms of EDTA in eye structures ([6]; Eye Drop 1 (60.5 mM EDTA) versus Eye Drop 2 (12.5 mM EDTA)): Dose dependency was observed, particularly in the aqueous humor, the cornea, and the lens | distribution among eye structures ([6]; Eye Drop 1, two-hour time point): The majority of the EDTA was found in the aqueous humor

N[C@@H](CCC(=O)N[C@@H](CS)C(=O)NCC(=O)O)C(=O)O [glutathione]
effect of MSM on the diffusion rate [7]: no effect
